Assays:
Format in all cases: physicochemical
[1] = Hygroscopicity / water uptake of high purity amorphous Tiacumicin material
Text: Thus the high purity amorphous Tiacumicin material is relatively stable with respect to crystallization and suitable for long-term storage (e.g storage for 3 months, 6 months, 9 months etc.).

[2] = Stability of high purity amorphous Tiacumicin material on storage (XRPD)
Experimental: Stoe Stadi P; Mythen1K Detector; Cu-Kα1 radiation; standard measurement conditions: transmission; 40 kV and 40 mA tube power; curved Ge monochromator; 0.02°2θ step size, 12 s step time, 1.5-50.5°2θ scanning range; detector mode: step scan; 1°2θ detector step; standard sample preparation: 10 to 20 mg sample was placed between two acetate foils; sample holder: Stoe transmission sample holder; the sample was rotated during the measurement. Filenames of patterns recorded on this instrument consist of a three-digit number followed by a letter.
Bruker D8; Copper Ka radiation, 40 kV/40 mA; LynxEye detector, 0.02°2θ step size, 37 s step time.
The samples were generally measured without any special treatment other than the application of slight pressure to get a flat surface. Silicon single crystal sample holder types: a) standard holder for polymorphism screening, 0.1 mm deep, less than 20 mg sample required; b) 0.5 mm deep, 12 mm cavity diameter for c. 40 mg; c) 1.0 mm deep, 12 mm cavity diameter for c. 80 mg. All samples measured on the Bruker D8 are rotated during the measurement.
Several samples of high purity amorphous Tiacumicin B material were stored at 40° C./75% relative humidity.
Several samples of high purity amorphous Tiacumicin B material were stored at room temperature under normal light conditions.

[3] = XRPD of Tiacumicin solvate forms during storage; conditions: FIG. 8A / FIG. 9A
Text: FIG. 8A: XRPD of the Tiacumicin solvate form a during storage. FIG. 9A: XRPD of the Tiacumicin solvate form β during storage. The obtained material comprised 16% w/w acetic acid as measured by TG-FTIR. The obtained material comprised 9% w/w isopropylacetate as measured by TG-FTIR.

Structure (SMILES)	Deliquescence [1]	Hygroscopicity (water uptake) ([1]; FIG. 7C)	Suitability for storage (stability with respect to crystallization) ([2]; as demonstrated in example 7)	Solid state by XRPD after storage ([2]; room temperature storage, at 3 months)	Solid state by XRPD after storage ([2]; stored at 40° C./75% relative humidity, XRPDs at start, 24 hours, 7 days and 1 month)	Solid state by XRPD after storage ([2]; stored at room temperature under normal light conditions, XRPDs at start, 1 month and 2 months)	Suitability for storage (XRPD during storage) [3]
CCc1c(Cl)c(O)c(Cl)c(O)c1C(=O)O[C@H]1[C@H](O)[C@H](OC)[C@H](OC/C2=C\C=C\C[C@H](O)/C(C)=C/[C@H](CC)[C@@H](O[C@@H]3OC(C)(C)[C@@H](OC(=O)C(C)C)[C@H](O)[C@@H]3O)/C(C)=C/C(C)=C/C[C@@H]([C@@H](C)O)OC2=O)O[C@@H]1C [Tiacumicin B]	not deliquescent	hygroscopic with near linear water uptake	suitable for storage	amorphous material	amorphous material	amorphous material	–
CCc1c(Cl)c(O)c(Cl)c(O)c1C(=O)O[C@H]1[C@H](O)[C@H](OC)[C@H](OC/C2=C\C=C\C[C@H](O)/C(C)=C/[C@H](CC)[C@@H](O[C@@H]3OC(C)(C)[C@@H](OC(=O)C(C)C)[C@H](O)[C@@H]3O)/C(C)=C/C(C)=C/C[C@@H]([C@@H](C)O)OC2=O)O[C@@H]1C [form α of Tiacumicin B, Tiacumicin B]	–	–	–	–	–	–	storage suitable
